Experimental data published in ChEMBL document CHEMBL3351963 (Bioorg Med Chem Lett, 2014).
≈ marks a conversion by molar mass, not a printed value.

Experiments:
[1] = Stability in pH 7.4 buffer solution; format: physicochemical
[2] = Retention time of the compound by HPLC method; format: physicochemical
[3] = Stability in rat liver S9 fraction at 100 uM after 24 hrs in presence of 1 mM reduced glutathione at 37 degC by HPLC method; format: ADME, subcellular; conditions: s9, 24 h
[4] = Stability in presence of 1 mM reduced glutathione at 100 uM after 24 hrs at 37 degC by HPLC method; format: physicochemical
[5] = Stability in rat liver S9 fraction at 100 uM after 24 hrs in absence of 1 mM reduced glutathione at 37 degC by HPLC method; format: ADME; conditions: s9, 24 h
[6] = Prodrug conversion in rat liver S9 fraction assessed as half life for metformin formation at 100 uM in presence of 1 mM reduced glutathione by HPLC method; format: ADME, subcellular; conditions: gsh
Liver microsome = assay: Prodrug conversion in rat liver microsomes assessed as half life for metformin formation at 100 uM in presence of a NADPH-regenerating system by HPLC method; format: ADME
Liver cytosol = assay: Prodrug conversion in rat liver cytosol assessed as half life for metformin formation at 100 uM in presence of a NADPH-regenerating system by HPLC method; format: ADME, tissue-based
[7] = Prodrug conversion in human liver S9 fraction assessed as half life for metformin formation at 100 uM in presence of 1 mM reduced glutathione by HPLC method; format: ADME, subcellular; conditions: gsh
[8] = target: T1, Glutathione S-transferase A1 (Homo sapiens, UniProt P08263); assay: Prodrug conversion assessed as half life for human recombinant GST-A1-mediated metformin formation at 100 uM in presence of 1 mM reduced glutathione by HPLC method; format: ADME; conditions: gsh
T1 sequence (P08263 whole entry): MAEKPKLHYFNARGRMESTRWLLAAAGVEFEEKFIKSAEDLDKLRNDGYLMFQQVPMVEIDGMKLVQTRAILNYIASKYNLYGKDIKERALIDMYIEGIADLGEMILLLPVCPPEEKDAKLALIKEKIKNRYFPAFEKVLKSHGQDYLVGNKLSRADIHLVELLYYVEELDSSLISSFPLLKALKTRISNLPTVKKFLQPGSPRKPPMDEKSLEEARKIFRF

[9] = target: T2, Glutathione S-transferase Mu 2 (Homo sapiens, UniProt P28161); assay: Prodrug conversion assessed as half life for human recombinant GST-M2-mediated metformin formation at 100 uM in presence of 1 mM reduced glutathione by HPLC method; format: ADME; conditions: gsh
T2 sequence (P28161 whole entry): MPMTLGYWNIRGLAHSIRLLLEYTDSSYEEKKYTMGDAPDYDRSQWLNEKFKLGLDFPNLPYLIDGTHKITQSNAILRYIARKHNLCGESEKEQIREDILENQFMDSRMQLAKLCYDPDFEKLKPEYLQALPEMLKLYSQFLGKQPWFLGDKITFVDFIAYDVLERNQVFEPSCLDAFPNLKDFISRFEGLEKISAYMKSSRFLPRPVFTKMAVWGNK

[10] = target: Glutathione S-transferase P (Homo sapiens, UniProt P09211); assay: Prodrug conversion assessed as half life for human recombinant GST-P1-mediated metformin formation at 100 uM in presence of 1 mM reduced glutathione by HPLC method; format: ADME; conditions: gsh
Chain of Glutathione S-transferase P (P09211 whole entry): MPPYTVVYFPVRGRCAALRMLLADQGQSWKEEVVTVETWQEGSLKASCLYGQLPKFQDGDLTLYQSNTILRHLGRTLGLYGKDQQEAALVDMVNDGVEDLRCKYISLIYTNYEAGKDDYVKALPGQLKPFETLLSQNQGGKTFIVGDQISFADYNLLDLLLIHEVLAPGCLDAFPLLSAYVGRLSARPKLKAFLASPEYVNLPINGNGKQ

[11] = Prodrug conversion in rat liver S9 fraction assessed as […] GST-mediated metformin formation at 10 to 200 uM in presence of 1 mM reduced glutathione by Michaelis-Menten method; format: ADME, subcellular; conditions: s9, 200 µM
[12] = Distribution coefficient, logD of the compound in mixture of 1-octanol and 50 mM phosphate buffer pH 7.4 by HPLC method; format: physicochemical; conditions: 1-octanol/50 mM phosphate buffer
[13] = Aqueous solubility in pure water incubated for 1 hr by HPLC based shake flask method; format: physicochemical
[14] = Stability in pH 1.0 HCl buffer solution measured over 3 weeks by HPLC method; format: physicochemical; conditions: pH 1, 504 h
Intestine = assay: Stability in rat small intestine homogenates by HPLC method; format: ADME, tissue-based; conditions: tissue homogenate

Row | Compound | Stability [1] | Retention_time [2] [min] | Stability [3] | Km [11] [µM] | Vmax [11] [nmol/mg/min] | other results
1 | CN(C)C(=N)/N=C(\N)NS(=O)(=O)c1ccccc1[N+](=O)[O-] | Stable | 3 | Stable | – | – | –
2 | CN(C)C(=N)/N=C(\N)NS(=O)(=O)c1ccc([N+](=O)[O-])cc1 | Stable | 3 | Stable | – | – | –
3 | CN(C)C(=N)/N=C(\N)NS(=O)(=O)c1ccc(C(F)(F)F)cc1[N+](=O)[O-] | Stable | 3 | – | 106 | 8.86 | Stability [4]: Stable; Stability [5]: Stable; t1/2 [6]: 3.7668 h; t1/2 (Liver microsome): 9.4752 h; t1/2 (Liver cytosol): 4.6642 h; t1/2 [7]: 6.0382 h; t1/2 [8]: 6.337 h; t1/2 [9]: 6.1045 h; t1/2 [10]: 6.8675 h; logD [12]: 0.86; solubility thermodynamic at 1 h [13]: 360 µg/mL (≈ 942 µM); Stability [14]: Stable; Stability (Intestine): Stable
4 | CCC[C@@]1(CCc2ccccc2)CC(O)=C([C@H](CC)c2cccc(NS(=O)(=O)c3ccc(C#N)cn3)c2)C(=O)O1 | – | – | – | 143 | 13.9 | –
5 | CN(C)C(=N)N=C(N)N [METFORMIN] | – | 15 | – | – | – | –
